Results taken from patent publication US6432938B1, “19-nor-cholane steroids as neurochemical initators of change in human hypothalamic function” (Pherin Corporation, priority 1996, dated 2002).

How the values were obtained:
vomeronasal organ (VNO) [1] = assay: Reflex/autonomic responses (RF, CF, BT, EMG, EEG) to stimulation of the VNO with airborne substance; format: in vivo, human; settings: for EEG-V (electroencephalogram from vertex): compound found to have an effect / BT (body temperature): compound found to have an effect / EEG-T (electroencephalogram from temporal region): compound found to have an effect / RF (respiratory frequency): compound found to have an effect / CF (cardiac frequency): compound found to have an effect / EMG (electromyogram): compound found to have an effect: 2 second pulses to VNO, number in cell = compound with effect; for gender dimorphic effects: males versus females, all recorded parameters
Method: (§1) Electrical signals from the recording electrode are fed to a DC amplifier after which they are digitized, computer monitored, and stored. The peak-to-peak amplitude of the signals is measured, and the area under the depolarization wave is integrated, while continuously monitoring the signal both on the computer screen and on a digital oscilloscope. Artifacts produced by respiratory movements are deleted by training the subjects to practice mouth breathing with velopharyngeal closure. Samples of vomeropherins in concentration of 25-800 fmoles are delivered in the continuous air stream for durations from 300 milliseconds to 1 second. Usually, intervals of 3 to 5 minutes separated each series of short test pulses. All components of the lines carrying the test stimuli are made of Teflon©, glass or stainless steel and are carefully cleaned and sterilized before each use. Activity was recorded using standard electroencephalographic (EEG) electrodes placed at positions Cz-Al and Tz-Al of the international […] system; the ground electrode was placed on the mastoid process. Skin temperature (ST) was recorded by a small (1.0 mm) thermistor probe placed in the right ear lobe. Respiratory frequency (RF) was measured with an adjustable strain gauge placed around the lower thorax. All electrical signals were DC amplified, digitized (MP-100, Biopac systems) and continuously monitored utilizing a computer.
Studies were conducted to determine the central nervous system (CNS) reflex responses to vomeropherin stimulation of the VNO. The sexually dimorphic local responses induced by vomeropherins were sometimes mirrored in the autonomic response of male & female subjects.
Fourteen different substances were tested against a control. All substances were diluted in propylene glycol, in 2 ml glass bottles coded with numbers. The solvent (propylene glycol) was used as control.
The airborne substances were delivered to the vomeronasal organ (VNO) in 2 second pulses, using a miniprobe. Several parameters were recorded Electrovomerogram (EVG), respiratory frequency (RF), cardiac frequency (ECG), electrodermal activity (EDA), body temperature (BT), electromyogram (EMG), and electroencephalogram from vertex (EEG-V) and temporal region (EEG-T).
A summary of the results is shown in Table I. Each number indicates the compound found to have an effect in females or in males, on the parameter indicated in the upper row of the table. (For the equivalence of each number to the corresponding compound in males, and in females, see the compound numbers).

vomeronasal organ (VNO) [2] = assay: Electrovomerogram (EVG) after airborne delivery of substance to the vomeronasal organ; format: in vivo, human; settings: 2 second pulses to VNO, diluted in propylene glycol, number in cell = compound with effect
From the text: The stimulation and recording system consists of a “multifunctional miniprobe” described elsewhere (Monti-Bloch, L. and Grosser, B. l. (1991) “Effect of putative pheromones on the electrical activity of the human vomeronasal organ and olfactory epithelium,” J. Steroid Biochem. Molec. Bio. 39:573582). The recording electrode is a 0.3 mm silver ball attached to a small (0.1 mm) silver wire insulated with Teflon© the surface of the electrode is first treated to produce a silver chloride interface, and is then covered with gelatin It is positioned within a small caliber Teflon© catheter (dia=5 mm) such that the tip of the electrode protrudes approximately 2 mm. The Teflon© catheter is 10 cm in length and constitutes the terminal extension for a multichannel delivery system which delivers a continuous air stream carrying discreet pulses of chemosensory stimuli. The air stream first passes into a small chamber and is bubbled through a solution containing either a vomeropherin or an olfactant in a diluent or the diluent alone. A solenoid is used to rapidly redirect the air stream from the chamber to a route which bypasses the chamber. This creates a discreet pulse of stimulant in the air stream. A second, outer Teflon© tube with a diameter of 2 mm surrounds the catheter-electrode assemblage, and its central end is connected to an aspirator that provides continuous suction of 3 ml/s. This concentric arrangement of the outer suction tube allows the emitted chemosensory stimuli to be localized to an area we call a “minifield” (approx. dia=1 mm), and it avoids diffusion of substances either to the area outside the intended stimulation site or into the respiratory system. The entire stimulating and recording assemblage may be positioned either on the neurosensory epithelium within the VNo, or on the surface of the olfactory or respiratory epithelium.
Electro-vomeronasogram (EVG): Recordings are carried out in a quiet room with the subject supine; the multi-functional miniprobe is initially stabilized within the nasal cavity using a nasal retractor placed in the vestibule. Reference and ground electrodes consist of silver discs (8 mm), both of which are positioned on the glabella.
The entrance to the VNO, or vomeronasal pit, is identified by first dilating the nasal aperture and vestibule. A 6×magnifying binocular loupe with halogen illumination is then used to introduce the tip of the Teflon© catheter and recording electrode assemblage into the VNo opening where it is stabilized at an approximate depth of 1 mm within the vomeronasal passage. Optimal placement of the recording electrode is signaled after testing for an adequate depolarization in response to a test substance.
as §1, with “All electrical signals were DC amplified, digitized (MP-100, Biopac systems) and continuously monitored utilizing a computer.” left out

SMILES	BT (body temperature): compound found to have an effect (vomeronasal organ (VNO) [1]; males (M))	EVG (electrovomerogram): compound found to have an effect (vomeronasal organ (VNO) [2]; females (F))	EVG (electrovomerogram): compound found to have an effect (vomeronasal organ (VNO) [2]; males (M))	EEG-T (electroencephalogram from temporal region): compound found to have an effect (vomeronasal organ (VNO) [1]; females (F))	CF (cardiac frequency): compound found to have an effect (vomeronasal organ (VNO) [1]; females (F))	also measured
CCCC=C1CC[C@H]2[C@@H]3C=Cc4cc(O)ccc4[C@H]3CC[C@]12C [Compound 3, 19,21-BISNORCHOLA-1,3,5(10),6,17(20)-PENTAEN-3-OL]	3	3	3	–	–	EEG-V (electroencephalogram from vertex): compound found to have an effect (vomeronasal organ (VNO) [1]; females (F)): 3
CCCCC1=CC[C@H]2[C@@H]3CCC4=C(CC[C@H](O)C4)[C@H]3CC[C@]12C [Compound 2, 19,21-BISNORCHOLA-5(10),16-DIEN-3beta-OL]	2	2	2	2	–	RF (respiratory frequency): compound found to have an effect (vomeronasal organ (VNO) [1]; males (M)): 2; gender dimorphic effects (vomeronasal organ (VNO) [1]): gender specific
CC(O)CO (stereo not drawn) [Compound 6, PROPYLENE GLYCOL]	–	6	–	6	–	–
CCCC=C1CCC2C3CCc4cc(O)ccc4C3=CCC12C (stereo not drawn) [Compound 1, 19,21-BISNORCHOLA-1,3,5(10),9(11),17(20)-PENTAEN-3-OL]	1	–	1	–	–	–
CCCCC1=CCC2C3CCC4=C(CCC(=O)C4)C3CCC12C (stereo not drawn) [Compound 12, 19,21-bisnorchola-5(10),16-dien-3-one]	–	–	–	–	–	CF (cardiac frequency): compound found to have an effect (vomeronasal organ (VNO) [1]; males (M)): 12
CCCC=C1CCC2C3=CCc4cc(O)ccc4C3CCC12C (stereo not drawn) [Compound 9, 19,21-BISNORCHOLA-1,3,5(10),7,17(20)-PENTAEN-3-OL]	–	–	–	–	9	–
CCCC=C1CCC2C3CCC4=CC(O)CCC4C3CCC12C (stereo not drawn) [Compound 5, 19,21-BISNORCHOLA-4,17(20)-DIEN-3beta-OL]	–	5	–	–	–	RF (respiratory frequency): compound found to have an effect (vomeronasal organ (VNO) [1]; females (F)): 5
C=C(CCC)[C@H]1CC[C@H]2[C@@H]3CCc4cc(O)ccc4[C@H]3CC[C@]12C [Compound 8, 19-NORCHOLA-1,3,5(10),20-TETRAEN-3-OL]	–	–	–	–	8	EMG (electromyogram): compound found to have an effect (vomeronasal organ (VNO) [1]; females (F)): 8; EEG-V (electroencephalogram from vertex): compound found to have an effect (vomeronasal organ (VNO) [1]; males (M)): 8
CCCC=C1CC[C@H]2c3ccc4cc(O)ccc4c3CC[C@]12C [Compound 7, 19,21-BISNORCHOLA-1,3,5,7,9,17(20)-HEXAEN-3-OL]	7	7	7	–	–	EEG-T (electroencephalogram from temporal region): compound found to have an effect (vomeronasal organ (VNO) [1]; males (M)): 7
CCCCC1=CC[C@H]2[C@@H]3CCC4=CC(=O)CC[C@]4(O)[C@H]3CC[C@]12C [Compound 4, 10beta-HYDROXY-19,21-BISNORCHOLA-4,16-DIEN-3-ONE]	4	–	–	–	–	RF (respiratory frequency): compound found to have an effect (vomeronasal organ (VNO) [1]; females (F)): 4; EMG (electromyogram): compound found to have an effect (vomeronasal organ (VNO) [1]; males (M)): 4
CCCCC1=CC[C@H]2[C@@H]3CCc4cc(OC)ccc4[C@H]3CC[C@]12C [Compound 11, 3-METHOXY-19,21-BISNORCHOLA-1,3,5(10),16-TETRAENE]	–	–	–	11	11	EEG-V (electroencephalogram from vertex): compound found to have an effect (vomeronasal organ (VNO) [1]; females (F)): 11; CF (cardiac frequency): compound found to have an effect (vomeronasal organ (VNO) [1]; males (M)): 11; EEG-T (electroencephalogram from temporal region): compound found to have an effect (vomeronasal organ (VNO) [1]; males (M)): 11; EEG-V (electroencephalogram from vertex): compound found to have an effect (vomeronasal organ (VNO) [1]; males (M)): 11
CCCCC1=CC[C@H]2[C@@H]3CCC4=C(CC[C@@H](O)C4)[C@H]3CC[C@]12C [Compound 10, 19,21-BISNORCHOLA-5(10),16-DIEN-3alpha-OL]	–	–	–	10	10	EEG-T (electroencephalogram from temporal region): compound found to have an effect (vomeronasal organ (VNO) [1]; males (M)): 10; EEG-V (electroencephalogram from vertex): compound found to have an effect (vomeronasal organ (VNO) [1]; males (M)): 10; gender dimorphic effects (vomeronasal organ (VNO) [1]): gender specific
